From patent publication US4960908A, “Isoflavone derivatives, salts thereof, and oncostatic and immunosuppressive agents” (Yamanouchi Pharmaceutical Co., Ltd., priority 1985, dated 1990)
Converted amounts (≈) assume the structure as drawn. Structures can show the parent of a compound that is named as a salt.

How the values were obtained:
[1] = tested on: RSV-3Y1 cells; experiment: Inhibitory action against the growth of tumor cells (RSV-3Y1 cells); format: cell-based; conditions: Rattus norvegicus, live cells counted after 1, 2, 3 and 4 days using trypan blue, read-out: IC50, Inhibition against the growth of RSV-3Y1
Description: The inhibitory action of the compounds of this invention against the growth of tumor cells was examined by using cells of rats transformed by Rous sarcoma virus (RSV-3Y1 cells).
The inhibitory actions of the compounds of Examples 1 through 17 against the tyrosine-specific protein kinase activity and against the growth of RSV-3Y1 cells were measured according to the methods described earlier.

[2] = biological target: tyrosine-specific protein kinase derived from Rous sarcoma virus (src gene pp60^src) (Rous sarcoma virus (strain Schmidt-Ruppin A), UniProt P00524); experiment: Inhibitory action against tyrosine-specific protein kinase activity; format: biochemical
Description: The inhibitory action against tyrosine-specific protein kinase activity of the compounds of this invention was measured according to the method described below using tyrosine-specific protein kinase derived from Rous sarcoma virus (src gene pp60^src).
Measurement of tyrosine-specific protein kinase activity (src gene pp60^src derived from Rous sarcoma virus) (refer to M. S. Colet, R. L. Ericson: Proceeding of the National Academy of Sciences of U.S.A., 75, 2021-2024, 1978).
3Y1 cells (fibroblasts derived from fetal rat kidney) transformed by Rous sarcome virus (RSV) were cultured, the cultured cells were collected and washed, RIPA buffer solution [containing 0.5% NP40, 0.1% sodium deoxycholate, 50 mM Tris-HCl (pH 7.2), 1 mM phenylmethylsulfonyl fluoride (PMSF) and 0.15M NaCl] was added to the collected cells, the mixture was allowed to stand at 0° C. for 30 minutes to effect solubilization, and the resulting mixture was centrifuged (100,000× g, 20 minutes). To the supernatant thus collected, was added antiserum obtained from a rabbit cancered by inoculation of RSV, the mixture was incubated at 0° C. for 30 to 60 minutes to cause pp60^src to react with antibody, and the immune complex was isolated by mixing with protein A/Sepharose-4B (Pharmacia) and washed with RIPA buffer. The total complex thus obtained (pp60^src /antibody/protein A/Sepharose-4B) was treated in a solution containing 20 mM Pipes/NaOH (pH 7.2), 5 mM MgCl2, 1 mM DTT and 10 μM [γ-^32 p]ATP (2 mCi/mMol) at 30° C. for five minutes to effect protein kinase reaction, which was terminated by addition a terminating solution containing SDS followed by boiling for three minutes. The reaction mixture was subjected to electrophoresis on 8% SDS/polyacrylamide gel and then to autoradiography, and the radioactivity of cut-out pp60^src band was measured on a liquid scintillation counter, thus quantifying the protein kinase reaction and calculating IC50 value.

[3] = tested on: antibody-forming cells (ovine erythrocytes immunization); experiment: Immunosuppressive action: antibody-formation inhibition (hemolytic plaques, antibody-forming cells in the spleen); format: in vivo, male ddy mouse; conditions: abdominal injection, once a day over four days, mouse
Description: The spleen was taken out five days after immunization, and the number of antibody-formingcells contained in it was measured as follows according to the method of Cunningham [Cunningham A. J.: Nature, 207, 1106 (1965)]. The splenetic cells were suspended in Eagle's MEM (Nissui Pharmaceutical), ovine erythrocytes and guinea-pig complement were added to this suspension, the resulting mixture was put in a Cunningham chamber (with its both ends sealed with paraffin) and incubated at 37° C. for 90 minutes, and the number of hemolytic plaques (a) (the number of antibody-forming cells) was counted.
Similarly, the number of hemolytic plaques (b) was measured with a mouse not injected with the compound of this invention (control). The antibody-formation inhibition rate was calculated according to the following equation: [formula]

[4] = reported in J.A.C.S. (page 3447, 1951); cited from earlier work
[5] = 5 mg/Kg for each administration
[6] = 25 mg/Kg for each administration

tyrosine-specific protein kinase derived from Rous sarcoma virus (src gene pp60^src), sequence (P00524 2-526): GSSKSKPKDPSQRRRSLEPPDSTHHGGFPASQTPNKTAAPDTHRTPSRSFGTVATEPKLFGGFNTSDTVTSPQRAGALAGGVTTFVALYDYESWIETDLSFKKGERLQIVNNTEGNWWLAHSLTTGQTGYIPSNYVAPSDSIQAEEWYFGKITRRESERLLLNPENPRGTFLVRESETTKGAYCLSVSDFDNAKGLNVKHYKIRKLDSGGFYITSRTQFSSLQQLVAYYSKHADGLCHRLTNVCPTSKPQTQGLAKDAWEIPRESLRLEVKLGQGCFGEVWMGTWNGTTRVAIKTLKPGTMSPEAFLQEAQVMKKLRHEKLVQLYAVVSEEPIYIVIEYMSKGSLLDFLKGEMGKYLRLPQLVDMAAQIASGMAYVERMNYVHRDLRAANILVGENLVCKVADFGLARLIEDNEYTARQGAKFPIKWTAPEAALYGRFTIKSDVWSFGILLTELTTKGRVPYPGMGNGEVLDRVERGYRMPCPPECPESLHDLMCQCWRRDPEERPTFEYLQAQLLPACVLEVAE

| Compound | IC50 [1] | IC50 [2] | further results |
| --- | --- | --- | --- |
| O=c1c(-c2ccc(O)cc2)c(CN2CCCCC2)oc2cc(O)cc(O)c12 [Example 5, 4',5,7-trihydroxy-2-piperidinomethylisoflavone] | 9.5 µg/mL (≈ 25.9 µM) | – | – |
| COc1ccc(-c2c(CN(C)C)oc3cc(O)cc(O)c3c2=O)cc1 [Example 2, 2-(dimethylaminomethyl)-5,7-dihydroxy-4'-methoxyisoflavone hydrochloride] | 18 µg/mL | > 293 µM | – |
| CSCc1oc2cc(O)cc(O)c2c(=O)c1-c1ccc(O)cc1 [Example 10, 4',5,7-trihydroxy-2-(methylthiomethyl)isoflavone] | 20 µg/mL (≈ 60.5 µM) | – | – |
| O=c1c(-c2ccc(O)cc2)c(CSC2=NCCS2)oc2cc(O)cc(O)c12 [Example 11] | 20 µg/mL (≈ 49.8 µM) | – | – |
| CNC(=O)c1oc2cc(O)cc(O)c2c(=O)c1-c1ccc(O)cc1 [Example 8, 4',5,7-trihydroxy-N-methyl-2-isoflavonecarboxamide] | > 100 µg/mL | 45.8 µM | – |
| O=C(O)CCSCc1oc2cc(O)cc(O)c2c(=O)c1-c1ccc(O)cc1 [Example 14] | 90 µg/mL (≈ 232 µM) | 25.7 µM | – |
| COc1ccc(-c2c(CNCCO)oc3cc(O)cc(O)c3c2=O)cc1.Cl [Example 4, 5,7-Dihydroxy-2-[(2-hydroxyethylamino)methyl]-4'-methoxyisoflavone hydrochloride] | > 100 µg/mL | > 254 µM | – |
| COCCOC(=O)c1oc2cc(O)cc(O)c2c(=O)c1-c1ccc(O)cc1 [Example 17, Methoxyethyl 4',5,7-trihydroxy-2-isoflavonecarboxylate] | 60 µg/mL (≈ 161 µM) | 16.1 µM | – |
| CC(C)OC(=O)c1oc2cc(O)cc(O)c2c(=O)c1-c1ccc(O)cc1 [Example 16, isopropyl 4',5,7-trihydroxy-2-isoflavonecarboxylate] | 25 µg/mL (≈ 70.2 µM) | – | – |
| COC(=O)c1oc2cc(O)cc(O)c2c(=O)c1-c1ccc(O)cc1 [Example 15] | 60 µg/mL (≈ 183 µM) | – | – |
| CCOC(=O)C(=O)Oc1ccc(-c2c(C(=O)OCC)oc3cc(O)cc(O)c3c2=O)cc1 [Example 1, ethyl 4'-ethoxalyloxy-5,7-dihydroxy-2-isoflavonecarboxylate] | > 100 µg/mL | 2.26 µM | Antibody-formation inhibition rate ([3]; 1 mg/Kg for each administration): 14.4%; Antibody-formation inhibition rate [3, 5]: 28.7%; Antibody-formation inhibition rate [3, 6]: 40.0%; Antibody-formation inhibition rate ([3]; 50 mg/Kg for each administration): 75.8% |
| CCOC(=O)CSCc1oc2cc(O)cc(O)c2c(=O)c1-c1ccc(O)cc1 [Example 12, Ethyl [[(4',5,7-trihydroxy-2-isoflavonyl)methyl]thio]acetate] | > 100 µg/mL | – | Antibody-formation inhibition rate [3, 5]: 25.3%; Antibody-formation inhibition rate [3, 6]: 50.0% |
| O=c1c(-c2ccc(O)cc2)c(CNC2=NCCS2)oc2cc(O)cc(O)c12 [Example 6, 4',5,7-Trihydroxy-2-[(2-thiazolin-2-ylamino)methyl]isoflavone] | > 100 µg/mL | 39 µM | – |
| O=c1c(-c2ccc(O)cc2)coc2cc(O)cc(O)c12 [genistein, 5,7,4'-trihydroxyisoflavone] | – | – | estrogenic action [4]: weak estrogenic action |
| COc1ccc(-c2c(CNC3CCCCC3)oc3cc(O)cc(O)c3c2=O)cc1 [Example 3, 2-(Cyclohexylaminomethyl)-5,7-dihydroxy-4'-methoxyisoflavone hydrochloride] | 16 µg/mL | > 253 µM | – |
| O=c1c(-c2ccc(O)cc2)c(CSCC(O)CO)oc2cc(O)cc(O)c12 (stereo not drawn) [Example 13, 2-[[(2,3-Dihydroxypropyl)thio]methyl]-4', 5,7-trihydroxyisoflavone] | > 100 µg/mL | 10.2 µM | Antibody-formation inhibition rate [3, 5]: 27.0%; Antibody-formation inhibition rate [3, 6]: 76.6% |
| NC(=O)c1oc2cc(O)cc(O)c2c(=O)c1-c1ccc(O)cc1 [Example 7, 4',5,7-trihydroxy-2-isoflavonecarboxamide] | > 100 µg/mL | – | – |
| O=C(NCCO)c1oc2cc(O)cc(O)c2c(=O)c1-c1ccc(O)cc1 [Example 9, 4',5,7-trihydroxy-N-(2-hydroxyethyl)-2-isoflavonecarboxamide] | > 100 µg/mL | 42 µM | – |
